Among the data in ChEMBL document CHEMBL4371054, “Dual inhibition of Kif15 by oxindole and quinazolinedione chemical probes” (Bioorg Med Chem Lett, 2019) are inhibition, IC50 and Activity values, retold here.

Test [1] concerns the target T1, Kinesin-like protein KIF15 (Homo sapiens) (UniProt Q9NS87).
T1 sequence (whole entry): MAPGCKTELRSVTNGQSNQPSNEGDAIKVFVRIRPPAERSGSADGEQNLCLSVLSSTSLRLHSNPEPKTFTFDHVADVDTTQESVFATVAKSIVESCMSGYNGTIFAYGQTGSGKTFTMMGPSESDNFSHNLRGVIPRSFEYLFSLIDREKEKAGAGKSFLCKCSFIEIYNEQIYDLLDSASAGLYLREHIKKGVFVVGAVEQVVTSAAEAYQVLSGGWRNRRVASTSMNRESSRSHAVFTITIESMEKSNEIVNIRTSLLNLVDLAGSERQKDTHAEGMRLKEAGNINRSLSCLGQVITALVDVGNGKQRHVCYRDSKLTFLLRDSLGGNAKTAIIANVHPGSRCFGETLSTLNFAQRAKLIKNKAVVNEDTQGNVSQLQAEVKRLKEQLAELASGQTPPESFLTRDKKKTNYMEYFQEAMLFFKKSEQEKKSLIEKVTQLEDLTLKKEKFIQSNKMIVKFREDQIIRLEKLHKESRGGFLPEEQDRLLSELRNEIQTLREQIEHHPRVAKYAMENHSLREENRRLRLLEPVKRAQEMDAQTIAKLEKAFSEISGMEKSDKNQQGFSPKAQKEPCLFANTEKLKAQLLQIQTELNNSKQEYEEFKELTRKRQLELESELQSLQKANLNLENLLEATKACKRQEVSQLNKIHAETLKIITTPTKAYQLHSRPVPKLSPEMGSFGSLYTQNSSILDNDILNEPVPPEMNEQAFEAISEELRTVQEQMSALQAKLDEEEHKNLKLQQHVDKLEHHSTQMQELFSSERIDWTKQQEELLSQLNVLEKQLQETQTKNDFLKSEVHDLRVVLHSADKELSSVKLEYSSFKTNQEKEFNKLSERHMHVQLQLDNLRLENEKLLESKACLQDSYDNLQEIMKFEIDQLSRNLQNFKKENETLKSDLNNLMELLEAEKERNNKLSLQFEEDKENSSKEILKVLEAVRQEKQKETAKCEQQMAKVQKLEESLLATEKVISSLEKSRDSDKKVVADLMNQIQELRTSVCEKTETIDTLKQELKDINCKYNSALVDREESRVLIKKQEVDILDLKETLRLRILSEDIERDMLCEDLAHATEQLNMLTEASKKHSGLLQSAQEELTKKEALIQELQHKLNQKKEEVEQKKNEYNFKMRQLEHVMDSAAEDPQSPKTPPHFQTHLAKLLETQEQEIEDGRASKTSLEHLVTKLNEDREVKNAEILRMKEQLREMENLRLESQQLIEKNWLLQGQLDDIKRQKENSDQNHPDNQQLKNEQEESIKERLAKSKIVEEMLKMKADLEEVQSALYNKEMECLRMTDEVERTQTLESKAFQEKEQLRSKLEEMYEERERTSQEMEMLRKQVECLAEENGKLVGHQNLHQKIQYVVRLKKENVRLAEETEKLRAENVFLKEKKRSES
Description: Inhibition of recombinant His6-tagged Kif15 (N700 residues) (unknown origin) expressed in HeLa cells assessed as reduction in Alexa-594 labelled microtubule gliding at 750 nM measured every 2 secs for 20 secs by epifluorescence microscopic analysis (reference value: 1%). Format: cell-based.

Test [2] concerns the target T1, Kinesin-like protein KIF15 (Homo sapiens). Description: Inhibition of recombinant His6-tagged Kif15 ATPase activity (N420 residues) (unknown origin) expressed in HeLa cells at 10 uM using microtubule as substrate preincubated for 15 mins followed by ATP addition and measured after 20 mins by ADP-Glo luminescence assay relative to control. For orientation: ADP-Glo turns the ADP formed in a reaction into a luminescent signal.

Test [3] deals with T2, Kinesin-like protein KIF15 (Homo sapiens, UniProt Q9NS87).
T2 sequence (Q9NS87 whole entry): T1 sequence (whole entry)
Put plainly: Inhibition of recombinant His6-tagged Kif15 ATPase activity (N420 residues) (unknown origin) expressed in HeLa cells using microtubule as substrate preincubated for 15 mins followed by ATP addition and measured after 20 mins by ADP-Glo luminescence assay.

The target in test [4] is T1, Kinesin-like protein KIF15 (Homo sapiens). Description: Inhibition of Kif15 in TP53-deficient human RPE1 cells assessed as effect on spindle length at 25 uM after 24 hrs by Hoechst 33342 staining based immunofluorescence microscopic analysis (reference value: 11.4 +/- 0.2 um).
The target is the same in test [5]. Description: ATP competitive inhibition of recombinant His6-tagged Kif15 ATPase activity (N700 residues) (unknown origin) expressed in HeLa cells at 5 uM using microtubule as substrate preincubated for 30 mins followed by varying levels of ATP addition by double reciprocal Lineweaver-Burk plot analysis.
Test [6] has the same target. Put plainly: Inhibition of Kif15 in TP53-deficient human RPE1 cells assessed as reduction in Kif15 level at 25 uM after 24 hrs by Western blot analysis relative to control. On the technique in general: A western blot detects proteins with antibodies after separation by electrophoresis.
Test [7] has the same target. Description: Inhibition of Kif15 in K51-resistant human KIRC1 cells assessed as cells with monopolar spindles at 25 uM after 24 hrs by Hoechst 33342 staining based immunofluorescence microscopic analysis (reference value: 43 to 49%). On the set-up: scale not given: the % may be the effect or the level left.
Test [8] deals with T2, Kinesin-like protein KIF15. Put plainly: Inhibition of recombinant C-terminal truncated His6-tagged Kif15 (N700 residues) (unknown origin) expressed in Escherichia coli BL21 (DE3) assessed as reduction in microtubule gliding measured up to 2 mins.
For test [9], the target named is T1, Kinesin-like protein KIF15 (Homo sapiens). Description: Inhibition of Kif15 in TP53-deficient human RPE1 cells assessed as reduction in spindle-bound Kif15 level at 25 uM after 24 hrs by Hoechst 33342 staining based immunofluorescence microscopic analysis relative to control.
For test [10] the target is unchanged. Put plainly: Reversible inhibition of recombinant His6-tagged Kif15 (N700 residues) (unknown origin) expressed in HeLa cells assessed as reduction in Alexa-594 labelled microtubule gliding at 10 uM treated for 1 min followed by compound washout and measured every 2 secs for 1 min by epifluorescence microscopic analysis. Type of test: cell-based.
Test [11] has as its target T2, Kinesin-like protein KIF15. Description: Inhibition of recombinant His6-tagged Kif15 (N700 residues) (unknown origin) expressed in HeLa cells assessed as reduction in Alexa-594 labelled microtubule gliding measured every 2 secs for 20 secs by epifluorescence microscopic analysis. Format: cell-based.
Test [12] concerns the target T1, Kinesin-like protein KIF15 (Homo sapiens). Put plainly: Inhibition of Kif15 in TP53-deficient human RPE1 cells assessed as cells with bipolar pre-anaphase microtubule structure at 25 uM after 24 hrs by Hoechst 33342 staining based immunofluorescence microscopic analysis (reference value: 90 to 94%). On the set-up: scale not given: the % may be the effect or the level left.

The structures appear in SMILES notation. Calls of active or inactive are those of the source. No cut-off for these calls is given here.

The inhibition is the relative decrease from the control value, in per cent. Regarding `O=C1Nc2ccc(I)cc2/C1=C/c1cc(Cl)c(O)c(Cl)c1`, in test [1], the inhibition was found to be 15%.

The term IC50 denotes the concentration that gives 50% inhibition. On to `O=C1Nc2ccc(I)cc2/C1=C/c1cc(Br)c(O)c(Br)c1`, for which, in [2], the inhibition came out at 90%. Besides, in test [3], the IC50 is 2500 nM.

Turning to `O=C1Nc2ccc(C(=O)c3ccco3)cc2/C1=C/c1cc(F)c(O)c(Br)c1`, the inhibition in [1] worked out at 38%.

On to `O=C1Nc2ccc(C(=O)c3ccco3)cc2/C1=C/c1ccc(Br)c(O)c1`, for which the inhibition in test [1] was -5.6%.

Take `O=C1Nc2ccc(-c3ccco3)cc2/C1=C/c1cc(Cl)c(O)c(Cl)c1`: in [1], the inhibition stood at 33%.

For the compound `O=C1Nc2ccc(C(=O)c3ccco3)cc2/C1=C/c1cc(Cl)c(O)c(Br)c1`, the inhibition in test [1] was 62%.

`O=C1Nc2ccc(C(=O)N3CCCC3)cc2/C1=C/c1cc(Cl)c(O)c(Cl)c1`: the inhibition in [1] was -10%.

Consider `O=C1Nc2ccc(C(=O)c3ccco3)cc2/C1=C/c1cc(Br)cc(Br)c1`, for which the inhibition in test [1] worked out at 16%.

Consider `O=C1Nc2ccc(C(=O)c3ccco3)cc2/C1=C/c1cc(F)c(O)c(F)c1`, for which the inhibition in test [1] came to 21%.

For the compound `O=C1Nc2ccc(C(=O)c3ccco3)cc2/C1=C/c1cccc(O)c1`, in test [1], the inhibition amounted to 8.21%.

Take `O=C1Nc2ccc(-c3cccc(F)c3)cc2/C1=C/c1cc(Cl)c(O)c(Cl)c1`: the inhibition in [1] is -5.8%.

As for `CN(C)C(=O)c1ccc2c(c1)/C(=C/c1cc(Cl)c(O)c(Cl)c1)C(=O)N2`, the inhibition in test [1] is 15.3%.

For the compound `O=C1Nc2ccc(-c3ccccn3)cc2/C1=C/c1cc(Cl)c(O)c(Cl)c1`, the inhibition in [1] was 7.3%.

`O=C1Nc2ccc(C(=O)c3ccco3)cc2/C1=C/c1ccc(O)c(C(F)(F)F)c1`: the inhibition in test [1] is 9.5%.

`COc1ccc(/C=C2\C(=O)Nc3ccc(C(=O)c4ccco4)cc32)cc1Br`: the inhibition in [1] is 2.3%.

For the compound `O=C1Nc2ccc(C(=O)c3ccco3)cc2/C1=C/c1ccncc1`, in test [1], the inhibition is 0.8%.

`O=C1Nc2ccc(C(=O)c3ccco3)cc2/C1=C/c1ccc(O)c(Br)c1`: the inhibition in test [1] is 23%.

Turning to `O=C1Nc2ccc(C(=O)c3ccco3)cc2/C1=C/c1cc(Br)c(O)c(Br)c1`, the inhibition in test [1] was determined as 65%.

For `O=C1Nc2ccc(C(=O)c3ccco3)cc2/C1=C/c1cc(I)c(O)c(I)c1`, the inhibition in test [1] is 26%.

`CCOC(=O)c1sc(NC(=O)[C@H](C(C)C)n2c(=O)[nH]c3ccccc3c2=O)nc1C`: the Activity was found to be 9.9 µm in test [4], 84% in test [7] and 96% in test [12]. Further, the inhibition result in [5] and in test [10] was “Active” throughout. The inhibition in [6] stood at 15%. The results for the IC50 in test [8] and in [11] were 1720 nM and 200 nM, respectively. In test [9], the inhibition entry is “inactive”.

With `Cc1cc(/C=C2\C(=O)Nc3ccc(C(=O)c4ccco4)cc32)cc(C)c1O`, the inhibition in test [1] stood at 9%.

Regarding `O=C1Nc2ccc(C(=O)c3ccco3)cc2/C1=C/c1ccnc(Cl)c1`, the inhibition in [1] is 15.8%.

`O=C1Nc2ccc(C(=O)c3ccco3)cc2/C1=C/c1ccc(O)nc1`: the inhibition in test [1] turned out to be 26.5%.

In the case of `COc1cc(/C=C2\C(=O)Nc3ccc(C(=O)c4ccco4)cc32)cc(Cl)c1O`, in [1], the inhibition was -3.5%.

For `O=C1Nc2ccc(I)cc2/C1=C/c1cc(F)c(O)c(F)c1`, the inhibition in [1] is 4.8%.
